Test results taken from EP0074599A1, “5,6-cis-Carbapenem derivatives, their production and use” (Takeda Chemical Industries, Ltd., priority 1981, dated 1983).

Tests used:
Assay in all cases: Minimal Inhibitory Concentration (MIC), agar dilution method
Format in all cases: cell-based
Design in all cases: unit not given here
P.-mirabilis IFO 3849 = settings: Test Microorganism (12) P.-mirabilis IFO 3849; Trypticase soy agar, 37°C for 18 hours
Method: (§1) Minimal Inhibitory Concentration (MIC)
(§2) The Minimal Inhibitory Concentrations of the tested compounds were determined according to the agar dilution method. Namely, 1.0 ml each of aqueous solution of the tested compounds diluted by serial dilutions was poured into test petri dishes, subsequently 9.0 ml each of Trypticase soy agar was poured into the dishes and mixed. On each of the mixed agar plates, one loopful of bacterial suspension (about 10^8 CFU/ml) of test microorganism was streaked.
(§3) After the incubation at 37°C for 18 hours, the lowest concentration of the tested compounds in the medium which caused apparently complete inhibition of growth of the test microorganism was taken to be minimal inhibitory concentration.
(§4) • (1) S. aureus FDA 209P • (2) S. aureus 308 A-1 • (3) S. aureus 1840 • (4) E. coli NIHJ JC-2 • (5) E. coli 0-111 • (6) E. coli T-7 • (7) C. freundii IFO 12681 • (8) K. pneumoniae DT • (9) E. cloacae IFO 12937 • (10) S. marcescens IFO 12648 • (11) P. vulgaris IFO 3988 • (12) P.-mirabilis IFO 3849 • (13) P. morganii IFO 3168 • (14) P. aeruginosa IFO 3455 • (15) P. aeruginosa U 31 • (16) A. calcoaceticus IFO 13006

E. coli NIHJ JC-2 = settings: Test Microorganism (4) E. coli NIHJ JC-2; Trypticase soy agar, 37°C for 18 hours
Method: as §1, §2, §3, §4

E. coli T-7 = settings: Test Microorganism (6) E. coli T-7; Trypticase soy agar, 37°C for 18 hours
Method: as §1, §2, §3, §4

P. aeruginosa IFO 3455 = settings: Test Microorganism (14) P. aeruginosa IFO 3455; Trypticase soy agar, 37°C for 18 hours
Method: as §1, §2, §3, §4

[1] = tested on: A. calcoaceticus IFO 13006; settings: Test Microorganism (16) A. calcoaceticus IFO 13006; Trypticase soy agar, 37°C for 18 hours
Method: as §1, §2, §3, §4

S. aureus FDA 209P = settings: Test Microorganism (1) S. aureus FDA 209P; Trypticase soy agar, 37°C for 18 hours
Method: as §1, §2, §3, §4

P. vulgaris IFO 3988 = settings: Test Microorganism (11) P. vulgaris IFO 3988; Trypticase soy agar, 37°C for 18 hours
Method: as §1, §2, §3, §4

K. pneumoniae DT = settings: Test Microorganism (8) K. pneumoniae DT; Trypticase soy agar, 37°C for 18 hours
Method: as §1, §2, §3, §4

P. aeruginosa U 31 = settings: Test Microorganism (15) P. aeruginosa U 31; Trypticase soy agar, 37°C for 18 hours
Method: as §1, §2, §3, §4

S. aureus 308 A-1 = settings: Test Microorganism (2) S. aureus 308 A-1; Trypticase soy agar, 37°C for 18 hours
Method: as §1, §2, §3, §4

E. cloacae IFO 12937 = settings: Test Microorganism (9) E. cloacae IFO 12937; Trypticase soy agar, 37°C for 18 hours
Method: as §1, §2, §3, §4

E. coli 0-111 = settings: Test Microorganism (5) E. coli 0-111; Trypticase soy agar, 37°C for 18 hours
Method: as §1, §2, §3, §4

S. aureus 1840 = settings: Test Microorganism (3) S. aureus 1840; Trypticase soy agar, 37°C for 18 hours
Method: as §1, §2, §3, §4

C. freundii IFO 12681 = settings: Test Microorganism (7) C. freundii IFO 12681; Trypticase soy agar, 37°C for 18 hours
Method: as §1, §2, §3, §4

S. marcescens IFO 12648 = settings: Test Microorganism (10) S. marcescens IFO 12648; Trypticase soy agar, 37°C for 18 hours
Method: as §1, §2, §3, §4

P. morganii IFO 3168 = settings: Test Microorganism (13) P. morganii IFO 3168; Trypticase soy agar, 37°C for 18 hours
Method: as §1, §2, §3, §4

SMILES	Minimal Inhibitory Concentration (MIC) (P.-mirabilis IFO 3849)	Minimal Inhibitory Concentration (MIC) (E. coli NIHJ JC-2)	Minimal Inhibitory Concentration (MIC) (E. coli T-7)	Minimal Inhibitory Concentration (MIC) (P. aeruginosa IFO 3455)	Minimal Inhibitory Concentration (MIC) [1]	Minimal Inhibitory Concentration (MIC) (S. aureus FDA 209P)	Minimal Inhibitory Concentration (MIC) (P. vulgaris IFO 3988)	Minimal Inhibitory Concentration (MIC) (K. pneumoniae DT)	Minimal Inhibitory Concentration (MIC) (P. aeruginosa U 31)	Minimal Inhibitory Concentration (MIC) (S. aureus 308 A-1)	Minimal Inhibitory Concentration (MIC) (E. cloacae IFO 12937)	Minimal Inhibitory Concentration (MIC) (E. coli 0-111)	Minimal Inhibitory Concentration (MIC) (S. aureus 1840)	Minimal Inhibitory Concentration (MIC) (C. freundii IFO 12681)	Minimal Inhibitory Concentration (MIC) (S. marcescens IFO 12648)	Minimal Inhibitory Concentration (MIC) (P. morganii IFO 3168)
CC(C)(O)[C@@H]1C(=O)N2C(C(=O)O)=C(Sc3cccnn3)C[C@H]12 [Example 20, Sodium 5,6-cis-3-(3-pyridazinylthio)-6-(l-hydroxy-l-methylethyl)-7-oxo-1-azabicyclo[3.2.0]hept-2-ene-2-carboxylate]	3.13	0.78	3.13	50	12.5	0.39	3.13	0.78	>100	0.39	1.56	0.2	0.78	0.78	1.56	3.13
CN(C)CCSC1=C(C(=O)O)N2C(=O)[C@@H](C(C)(C)O)[C@H]2C1 [Example 26, 5,6-cis-3-[2-(N,N-Dimethylaminoethyl)thio]-6-(1-hydroxy-1-methylethyl)-7-oxo-1-azabicyclo[3.2.0]hept-2-ene-2-carboxylic acid]	50	0.78	0.78	25	12.5	0.39	50	25	50	0.39	6.25	0.39	0.78	3.13	6.25	50
